The values that follow come from patent publication US20230117034A1, “PYRAZOLOTRIAZINES” (Bayer Aktiengesellschaft, priority 2019, published 2023).

Test [1] relates to MDA-MB-231, human breast cancer cells. Briefly: Proliferation assay MDA-MB-231 (crystal violet, 4 days). In kind it is cell-based. The following applies: Homo sapiens, MDA-MB-231, 96 h, MDA-MB-231 cells, median, read-out: Prolif-MDA MB-231, IC50-[mol/l] (median). In short, it runs like this: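 Growth was measured by crystal violet staining after cells had been treated with compounds (0.01-10 µmol/L, 0.1% DMSO) for 4 days, beginning 24 h after seeding. Values were normalized to a zero-point plate and to untreated controls, and IC50 values were derived by a four-parameter fit.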

The target in another test is CDK12/CycK (Homo sapiens, UniProt Q9NYV4). Briefly: CDK12/CycK high ATP kinase assay (TR-FRET, 2 mM ATP). In kind it is biochemical. The following applies: 2 mM ATP (high ATP); median; read-out: CDK12/CyclinK, 2 mM ATP (high ATP), IC50-[mol/l] (median). The method, boiled down: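 Read-out is TR-FRET (Eu-anti-rabbit IgG, anti-phospho-c-Myc Ser62 antibody, streptavidin-XL665) after EDTA stop. Reaction ran 60 min at 22 °C using 1 µM biotin-peptide and high ATP (2 mM) with roughly 0.75 nM recombinant CDK12/CycK, after 15 min compound pre-binding; normalised emission ratios yield IC50.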
Background: TR-FRET usually uses a lanthanide donor and a delayed reading to cut background.

Sequence of CDK12/CycK (Q9NYV4 with tags, fused parts or gaps): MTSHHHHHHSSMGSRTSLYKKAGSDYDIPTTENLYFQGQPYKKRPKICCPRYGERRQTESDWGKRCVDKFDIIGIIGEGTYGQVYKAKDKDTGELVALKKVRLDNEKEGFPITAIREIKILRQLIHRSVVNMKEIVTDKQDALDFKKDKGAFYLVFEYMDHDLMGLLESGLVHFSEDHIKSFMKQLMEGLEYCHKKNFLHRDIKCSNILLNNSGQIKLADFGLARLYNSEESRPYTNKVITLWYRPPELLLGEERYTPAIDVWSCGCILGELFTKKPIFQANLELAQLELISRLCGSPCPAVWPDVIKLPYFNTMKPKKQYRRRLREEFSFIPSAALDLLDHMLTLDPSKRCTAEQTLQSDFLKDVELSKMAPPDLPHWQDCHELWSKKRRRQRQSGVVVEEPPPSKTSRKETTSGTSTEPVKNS
Sequence of CDK12/CycK (O75909 1-300 partner limits assumed): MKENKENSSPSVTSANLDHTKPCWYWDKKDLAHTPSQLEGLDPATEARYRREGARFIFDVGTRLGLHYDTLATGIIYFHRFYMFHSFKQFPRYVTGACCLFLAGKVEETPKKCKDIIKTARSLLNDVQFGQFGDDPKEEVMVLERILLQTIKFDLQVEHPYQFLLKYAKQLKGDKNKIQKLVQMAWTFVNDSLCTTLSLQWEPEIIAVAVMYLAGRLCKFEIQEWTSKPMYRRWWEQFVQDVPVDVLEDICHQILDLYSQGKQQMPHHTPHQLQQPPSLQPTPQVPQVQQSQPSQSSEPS

With `CCc1cnn2c(NCc3nc4c(F)c(F)ccc4[nH]3)nc(N3CCN(C)CC3)nc12.O=CO` [Example 435, formic acid N-[(4,5-difluoro-1H-benzimidazol-2-yl)methyl]-8-ethyl-2-(4-methylpiperazin-1-yl)pyrazolo[1,5-a][1,3,5]triazin-4-amine], the IC50 in test [1] is 4.25 nM.

Take `CC(C)c1cnn2c(NCc3nc4ccccc4[nH]3)nc(N3CCOCC3)nc12` [Example 1, N-[(1H-benzimidazol-2-yl)methyl]-2-(morpholin-4-yl)-8-(propan-2-yl)pyrazolo[1,5-a][1,3,5]triazin-4-amine]: the figures for the IC50 (in test [1]; on CDK12/CycK) were 86.4 nM and 5970 nM, respectively.

Take `O[C@@H]1CCN(c2nc(NCc3nc4ccccc4[nH]3)n3ncc(Br)c3n2)C1` [Example 202, (3R)-1-(4-{[(1H-benzimidazol-2-yl)methyl]amino}-8-bromopyrazolo[1,5-a][1,3,5]triazin-2-yl)pyrrolidin-3-ol]: in test [1], the IC50 amounted to 295 nM.

Turning to `CN1CCN(c2nc(NCc3nc4cc(Cl)c(Cl)cc4[nH]3)n3ncc(C4CC4)c3n2)CC1` [Example 305, 8-cyclopropyl-N-[(5,6-dichloro-1H-benzimidazol-2-yl)methyl]-2-(4-methylpiperazin-1-yl)pyrazolo[1,5-a][1,3,5]triazin-4-amine], the IC50 in test [1] worked out at 5.94 nM.

For `CC(C)c1cnn2c(NCc3nc4ccccc4[nH]3)nc(N3CCOC(C)(C)C3)nc12` [Example 12, N-[(1H-benzimidazol-2-yl)methyl]-2-(2,2-dimethylmorpholin-4-yl)-8-(propan-2-yl)pyrazolo[1,5-a][1,3,5]triazin-4-amine], the IC50 in test [1] was 373 nM.

As for `CN1CCN(c2nc(NCc3nc4cc(C(F)(F)F)ccc4[nH]3)n3ncc(C4CC4)c3n2)CC1` [Example 313, 8-cyclopropyl-2-(4-methylpiperazin-1-yl)-N-{[5-(trifluoromethyl)-1H-benzimidazol-2-yl]methyl}pyrazolo[1,5-a][1,3,5]triazin-4-amine], the IC50 in test [1] was 15.6 nM.

As to `Fc1ccc2[nH]c(CNc3nc(N4CCOCC4)nc4c(-c5cnn(C(F)F)c5)cnn34)nc2c1F` [Example 422, N-[(4,5-difluoro-1H-benzimidazol-2-yl)methyl]-8-[1-(difluoromethyl)-1H-pyrazol-4-yl]-2-(morpholin-4-yl)pyrazolo[1,5-a][1,3,5]triazin-4-amine], in test [1], the IC50 came to 20.1 nM.

Take `COc1cccc(-c2cnc(CNc3nc(N4CCOCC4)nc4c(Br)cnn34)[nH]2)c1` [Example 80, 8-bromo-N-{[5-(3-methoxyphenyl)-1H-imidazol-2-yl]methyl}-2-(morpholin-4-yl)pyrazolo[1,5-a][1,3,5]triazin-4-amine]: the IC50 on CDK12/CycK is 1180 nM.

Consider `Fc1ccccc1-c1cnc(CNc2nc(N3CCOCC3)nc3c(Br)cnn23)[nH]1` [Example 86, 8-bromo-N-{[5-(2-fluorophenyl)-1H-imidazol-2-yl]methyl}-2-(morpholin-4-yl)pyrazolo[1,5-a][1,3,5]triazin-4-amine], for which the IC50 at CDK12/CycK amounted to 1890 nM.

With `COc1ccccc1-c1cnc(CNc2nc(N3CCOCC3)nc3c(Br)cnn23)[nH]1` [Example 87, 8-bromo-N-{[5-(2-methoxyphenyl)-1H-imidazol-2-yl]methyl}-2-(morpholin-4-yl)pyrazolo[1,5-a][1,3,5]triazin-4-amine], at CDK12/CycK, the IC50 worked out at 2590 nM.
